Reference: patent publication US20050020483A1, “Sigma ligands for neuronal regeneration and functional recovery” (priority 2003, published 2005)

Columns and labels:
[1] = test system: SHR (spontaneous hypertensive) rats, stroke by MCA occlusion; test: Rotating pole or cylinder test after MCA occlusion (Example 1); format: in vivo, rat; conditions: 0.03-10 mg/kg s.c. or p.o. from two days after MCAO for 2-8 weeks; present-tense example
Text: Male 3 months old SHR (spontaneous hypertensive) rats are used for induction of stroke by MCA occlusion. This is the preferred strain since most stroke patients are hypertensive. The animals are anesthetized with Methohexital and a small craniectomy is made above the zygmotic arch to expose the middle cerebral artery, which is occluded with a 10-0 monofilament nylon thread distal to the origin of the striatal branches. The rats are not intubated and no catheters are inserted. Following MCA occlusion a large and reproducible infarct is obtained, leading to a robust sensorimotor deficit. The animals are kept on a 6 hr light/18 h dark cycle with free access to food and water. At two days after the MCAO the rats are treated with the compound I, II, III, IV, V, VI, VII, VIII, or IX (0.03-10 mg/kg) s.c. or p.o. and a control group is given saline for 2-8 weeks. At 2, 4, 6 and 8 weeks animals are tested in the rotating pole or cylinder test
(§1) The cylinder test (modified from Schallert and Tillerson (Innovative models of CNS disease: from molecule to therapy. Clifton, N.J., Humana, 1999) is used to quantify the forelimb use for rearing on the cylinder wall. The rats are monitored as they move freely in a 20-cm-wide clear glass cylinder. Contacts made by each forepaw with the cylinder wall while rearing are scored by a blinded observer. A total of 20 contacts are recorded for each animal, and the number of impaired (left), both, and non-impaired forelimb contacts as percentage of total contacts is calculated. Baseline for rats is achieved by measuring the contacts made by each forepaw before MCAO.

[2] = test system: NMDA-induced toxicity and seizures; conditions: in vivo models; cited from earlier work
[3] = test system: sigma-1 site compared to the sigma-2 site; conditions: (+) isomers of benzomorphan opiates; cited from earlier work
[4] = test system: spontaneously hypertensive rats exposed to permanent middle artery occlusion (MCAO); test: Rotating pole test after permanent MCAO (Example 2); format: in vivo, rat; conditions: rotating pole score 0-6
Text: A score of 6-0 is given for each direction:
6, the animal crosses the pole with no foot slips;
5, the animal crosses the pole with a few foot slips;
4, the animal crosses the pole, slipping 50% of the footsteps;
3, the animal crosses the pole with more than 50% foot slips;
2, the animal walks a bit and then rotates around the pole;
1, the animal rotates around the pole without crossing it;
0, the animal falls off the pole.
Thirty five spontaneously hypertensive rats were exposed to permanent middle artery occlusion (MCAO), then divided into three treatment groups. Starting at two days after occlusion and continuing daily until 28 days after occlusion, SA4503 was administered s.c. in doses of 0.3 mg/kg (12 rats) or 1.0 mg/kg (12 rats). In a control group (11 rats), vehicle only was administered. At the start of treatment, and at several time points during the test, the rats were assessed for their performance in the rotating pole model. This model is described in Example 1. It requires the rats to cross a horizontally suspended rotating pole having a length of 1 m. This task measures the sensory-motor performance of the animals. The animals' behaviour was recorded using a video camera and later analyzed and scored by a trained technician. The scoring ranges from 0 to 6, with 0 being very poor performance and 6 reflecting the performance of a healthy animal (without MCAO).

[5] = test system: spontaneously hypertensive rats exposed to permanent middle artery occlusion (MCAO); test: Cylinder test for asymmetric forelimb use after permanent MCAO (Example 2); format: in vivo, rat; conditions: 0.3 mg/kg; all time points measured
Description: as §1
Forty three spontaneously hypertensive rats were exposed to permanent middle artery occlusion (MCAO), then divided into three treatment groups. […] At the start of treatment, and at several time points during the test, the rats were assessed for their performance in the cylinder test. […] The performance of the rats in the test was assessed one day before permanent MCAO, then at 14 days, 28 days and 59 days after permanent MCAO. The rats were monitored as they moved freely in a 20 cm-wide clear glass cylinder. Contacts made by each forepaw with the cylinder wall while rearing were scored by a blinded observer. […]

[6] = test system: rat primary neuronal cultures; conditions: cited from earlier work
[7] = test system: cultured rat retinal neurons; conditions: cited from earlier work
[8] = test system: ischemia in gerbils; conditions: cited from earlier work
[9] = hydrohalide salts, in particular the hydrochloride salt; cited from earlier work

Q: With O=C(OCCN1CCOCC1)C1(c2ccccc2)CCCCC1 [III, 1-phenylcyclohexane-1-carboxylic acid-2-morpholinoethyl ester] as the compound, how does the “performance in the rotating pole test or the cylinder test versus control” value [1] read?
A: perform better than the group 1 control animals

Q: Which “performance in the rotating pole test or the cylinder test versus control” value [1] does the source give for CN(CCc1ccc(Cl)c(Cl)c1)[C@H]1CCCC[C@H]1N1CCCC1 [VIII, (−)-(1S, 2R)-N-[2-(3,4-dichlorophenyl)ethyl]-N-methyl-2-(pyrrolidin-1-yl) cyclohexylamine] here?
A: perform better than the group 1 control animals

Q: For CCC(C/C=C/c1ccccc1)(c1ccccc1)N(C)CC1CC1 (single isomer, unassigned; (+)) [VI, (+)-N-(cyclopropylmethyl)-N-[1-ethyl-1,4-diphenyl-3(E)-butenyl]-N-methylamine], which “performance in the rotating pole test or the cylinder test versus control” value [1] is on record?
A: perform better than the group 1 control animals

Q: Which “performance in the rotating pole test or the cylinder test versus control” value [1] does the source give for COc1cccc2c1CCC(=O)N2CCCN1CCN(c2cccc(Cl)c2)CC1 [VII, 1-[3-[4-(3-chlorophenyl)piperazin-1-yl]propyl]-5-methoxy-1,2,3,4-tetrahydroquinolin-2-one] here?
A: perform better than the group 1 control animals

Q: For OC(CCCN1CCN(c2ncc(F)cn2)CC1)c1ccc(F)cc1 (stereo not shown) [BMY-14802], which “protective effects against NMDA-induced toxicity and seizures” value (“protective effects” for short) [2] is on record?
A: consistent with affording protective effects

Q: With COc1ccc(CN2CCN(Cc3ccccc3)CC2)c(O)c1OC [IX, N-benzyl-N′-(2-hydroxy-3,4-dimethoxybenzyl)-piperazine] as the compound, how does the “performance in the rotating pole test or the cylinder test versus control” value [1] read?
A: perform better than the group 1 control animals

Q: For CC(C)=CCN1CCC2(C)c3cc(O)ccc3CC1C2C (single isomer, unassigned; (+)) [(+)pentazocine], which “affinity for the sigma-1 site compared to the sigma-2 site” value [3] is on record?
A: nearly two orders of magnitude higher affinity for the sigma-1 site

Q: Which “performance in the rotating pole test or the cylinder test versus control” value [1] does the source give for O=C(NC1CCN(Cc2ccccc2)CC1)c1ccc(I)cc1 [II, N-(N-benzylpiperidin-4-yl)-4-iodobenzaminde] here?
A: perform better than the group 1 control animals

Q: For COc1ccc(CCN2CCN(CCCc3ccccc3)CC2)cc1OC [SA4503, 1-(3,4-dimethoxyphenethyl)-4-(3-phenylpropyl) piperazine], which “total average score at day 30” value ([4]; 0.3 mg/kg s.c.) is on record?
A: 5.2

Q: What about the “Average Increase in Score at Day 30 (SEM)” value ([4]; 0.3 mg/kg s.c. daily from day 2 to day 28 after MCAO) of the same compound?
A: 3.5 (SEM 0.4) (p < 0.05)

Q: And the “Average Increase in Score at Day 30 (SEM)” value ([4]; 1.0 mg/kg s.c. daily from day 2 to day 28 after MCAO)?
A: 3.67 (SEM 0.48) (p < 0.05)

Q: And the “asymmetry of paw usage” value [5]?
A: reduced to pre-MCAO levels

Q: And the “performance in the rotating pole test or the cylinder test versus control” value [1]?
A: perform better than the group 1 control animals

Q: And the “suppression of hypoxia/hypoglycemia-induced neurotoxicity” value [6]?
A: significantly suppress

Q: And the “activity against glutamate neurotoxicity” value [7]?
A: active

Q: Which protection against ischemia [8] does the source give for OCCN1CCN(CCCN2c3ccccc3C=Cc3ccccc32)CC1 [opipramol] here?
A: protect against ischemia

Q: Which “performance in the rotating pole test or the cylinder test versus control” value [1] does the source give for COCCCC/C(=N\OCCN)c1ccc(C(F)(F)F)cc1 [fluvoxamine, 5-methoxy-4′-(trifluoromethyl)valerophenone O-(2-aminoethyl)oxime] here?
A: perform better than the group 1 control animals

Q: For (+)SKF 10,047, which “affinity for the sigma-1 site compared to the sigma-2 site” value [3] is on record?
A: nearly two orders of magnitude higher affinity for the sigma-1 site

Q: For O=C(CCCN1CCC(O)(c2ccc(Cl)cc2)CC1)c1ccc(F)cc1 [haloperidol], which “protective effects” value [2] is on record?
A: consistent with affording protective effects

Q: Which “performance in the rotating pole test or the cylinder test versus control” value [1] does the source give for Fc1ccc(-n2cc(CCCCN3CCC4(CC3)OCc3ccccc34)c3ccccc32)cc1 [siramesine, 1′-[4-[1-(4-fluorophenyl)-1H-indol-3-yl]-1-butyl] spiro [isobenzofuran-1(3H),4′-piperidine]] here?
A: perform better than the group 1 control animals

Q: What about the bioavailability [9] of the same compound?
A: good bioavailability

Q: For CCN(CC)CCOC(=O)C1(c2ccccc2)CCCC1 [caramiphen], which “protective effects” value [2] is on record?
A: consistent with affording protective effects
